Test systems include MCF7 breast; SF-295 CNS; RPMI-8226 leukemia; NCI/ADR-RES ovarian; SK-MEL-5 melanoma; OVCAR-4 ovarian; HT29 colon; KM12 colon; SNB-75 CNS; MOLT-4 leukemia.
What all share (assay): inhibition of tumour cell growth, NCI panel, 48 h

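In this assay, cells in 96-well plates receive the compound at five concentrations for 48 hours. Endpoints are linearly interpolated between the surrounding concentrations. At the GI50, growth is halved. Definition used: TGI = concentration required for complete inhibition of growth.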 A value given as a limit tells only on which side of the number the result lay.

Consider `NCCOc1ccccc1/C=C1\c2ccccc2-c2ccc([N+](=O)[O-])cc21`, for which the GI50 was 0.805 µM in the experiment on MCF7 breast; 1.7 µM in the experiment with SF-295 CNS; 1.79 µM with RPMI-8226 leukemia; 1.77 µM in the experiment with NCI/ADR-RES ovarian; 1.8 µM in the experiment with SK-MEL-5 melanoma; 1.79 µM in the experiment with OVCAR-4 ovarian. The values for the GI50 with HT29 colon, with KM12 colon and in the experiment on SNB-75 CNS were 1.42 µM, 1.55 µM and 1.28 µM, respectively. For the same compound, the TGI stood at 2.25 µM in the experiment on MCF7 breast; 3.18 µM in the experiment with SF-295 CNS; 3.63 µM in the experiment on RPMI-8226 leukemia; 3.54 µM in the experiment with NCI/ADR-RES ovarian; 3.22 µM in the experiment on SK-MEL-5 melanoma; 3.27 µM in the experiment on OVCAR-4 ovarian. Besides, the TGI is 2.84 µM with HT29 colon, 2.94 µM with KM12 colon and 2.55 µM in the experiment on SNB-75 CNS.

In the case of `COc1c(-c2ccc(O)c(O)c2)oc2c(O)c(O)cc(O)c2c1=O`, the TGI was 76.1 µM in the experiment with MCF7 breast; greater than 100 µM in the experiment on SF-295 CNS; greater than 100 µM in the experiment on RPMI-8226 leukemia; greater than 100 µM in the experiment with NCI/ADR-RES ovarian; greater than 100 µM with SK-MEL-5 melanoma; greater than 100 µM with OVCAR-4 ovarian. Moreover, the results for the TGI with HT29 colon, in the experiment on MOLT-4 leukemia and in the experiment with KM12 colon were 39.8 µM, 73.8 µM and greater than 100 µM, respectively.

For the compound `CC1(C)C(=O)/C=C\C(=O)C(C)(C)C(=O)/C=C\C(=O)C(C)(C)C(=O)/C=C\C(=O)C(C)(C)C(=O)/C=C\C1=O`, the TGI is greater than 100 µM with MCF7 breast; 54.5 µM with SF-295 CNS; 24.2 µM with RPMI-8226 leukemia; 56.2 µM in the experiment on SK-MEL-5 melanoma; 53.1 µM in the experiment on OVCAR-4 ovarian; 37.3 µM in the experiment with HT29 colon. The TGI with MOLT-4 leukemia was 26.7 µM; in the experiment on KM12 colon, greater than 72.8 µM; with SNB-75 CNS, 99.4 µM.

As for `CN(C)CC(C(=O)Cc1ccccc1)c1ccccc1` (stereo not given), the GI50 in the experiment with MCF7 breast was 0.369 µM; with SF-295 CNS, 11.3 µM; with RPMI-8226 leukemia it was 0.444 µM; in the experiment with NCI/ADR-RES ovarian, 4.4 µM; in the experiment with SK-MEL-5 melanoma it was 11.6 µM; with OVCAR-4 ovarian, 2.35 µM. Moreover, the GI50 with MOLT-4 leukemia is 3.02 µM; in the experiment on KM12 colon, 1.07 µM; in the experiment on SNB-75 CNS it was 2.72 µM. Also, the TGI in the experiment on MCF7 breast was found to be 1.67 µM; in the experiment on SF-295 CNS, 27.8 µM; with RPMI-8226 leukemia, 3.17 µM; with NCI/ADR-RES ovarian, 23.9 µM; in the experiment with SK-MEL-5 melanoma it was 25.2 µM; with OVCAR-4 ovarian, 5.87 µM. For the same compound, the TGI is greater than 100 µM in the experiment on MOLT-4 leukemia, 2.49 µM in the experiment with KM12 colon and 11.5 µM with SNB-75 CNS.

Consider `CCCCCCCCCCCCCCCC(=O)OCC1OC(OC)C2NP(=O)(N(CCCl)CCCl)OC1C2O` (stereo not given), for which the TGI is 20.5 µM with MCF7 breast; greater than 41.8 µM in the experiment with SF-295 CNS; 15.9 µM with RPMI-8226 leukemia; 38 µM in the experiment with SK-MEL-5 melanoma; 38 µM with OVCAR-4 ovarian; greater than 66.8 µM in the experiment on HT29 colon. Also, the figures for the TGI with MOLT-4 leukemia, with KM12 colon and with SNB-75 CNS were 0.968 µM, 41.9 µM and 15.2 µM, respectively.

For `COc1cccc2c1C(=O)c1c(O)c3c(c(O)c1C2=O)C[C@@](O)(C(=O)CO)CC3OC1CC(O)C(O)C(C)O1` (stereo not given in full), the TGI in the experiment on MCF7 breast came to 21.6 µM; in the experiment on SF-295 CNS, 1.16 µM; with NCI/ADR-RES ovarian, 12.5 µM; with SK-MEL-5 melanoma, 0.687 µM; in the experiment with OVCAR-4 ovarian it was 6.85 µM; in the experiment with HT29 colon, 4.25 µM. The TGI in the experiment on KM12 colon stood at 7.49 µM; in the experiment on SNB-75 CNS, 1.08 µM.

In the case of `O=C1Nc2ccccc2/C1=C\c1nc(C2CCN(S(=O)(=O)c3ccc(F)cc3)CC2)n2ccccc12`, the GI50 is 5.72 µM in the experiment with MCF7 breast; 2.25 µM in the experiment on SF-295 CNS; greater than 100 µM in the experiment on RPMI-8226 leukemia; 3.43 µM in the experiment with NCI/ADR-RES ovarian; greater than 100 µM in the experiment with HT29 colon; greater than 100 µM with MOLT-4 leukemia. Besides, the TGI was greater than 100 µM in the experiment on MCF7 breast; 11.2 µM with SF-295 CNS; greater than 100 µM with RPMI-8226 leukemia; greater than 100 µM with NCI/ADR-RES ovarian; greater than 100 µM with HT29 colon; greater than 100 µM in the experiment on MOLT-4 leukemia.

For `C/C(=N\NC(=S)N1CCCCCCCCCCCC1)c1ccccn1`, the TGI is 0.674 µM with MCF7 breast; 1.01 µM in the experiment with SF-295 CNS; 9.7 µM with NCI/ADR-RES ovarian; 0.636 µM in the experiment on SK-MEL-5 melanoma; 1.51 µM with OVCAR-4 ovarian; 1.04 µM in the experiment with HT29 colon. In addition, the TGI turned out to be 1.07 µM in the experiment on MOLT-4 leukemia, 1.52 µM in the experiment with KM12 colon and 1 µM with SNB-75 CNS.

Turning to `O=c1c(Br)cc2c(-c3ccccc3)c3cc(Br)c(O)c(Br)c3oc-2c1Br`, the TGI in the experiment with MCF7 breast was greater than 100 µM; with SF-295 CNS, greater than 100 µM; in the experiment with RPMI-8226 leukemia it was greater than 100 µM; in the experiment with NCI/ADR-RES ovarian, greater than 100 µM; in the experiment with SK-MEL-5 melanoma, greater than 100 µM; in the experiment with OVCAR-4 ovarian, 63.7 µM. The TGI is 39.4 µM in the experiment with HT29 colon, greater than 100 µM in the experiment on MOLT-4 leukemia and greater than 100 µM in the experiment on KM12 colon.

As for `C=C(CC(=O)O)C(=O)O` (tested in a mixture with another compound), the GI50 in the experiment on MCF7 breast, with SF-295 CNS, with RPMI-8226 leukemia, in the experiment with NCI/ADR-RES ovarian, with SK-MEL-5 melanoma and with HT29 colon was greater than 50 µg/mL each time. Also, the GI50 in the experiment on MOLT-4 leukemia and in the experiment on KM12 colon was greater than 50 µg/mL in each case. Besides, the TGI in the experiment with MCF7 breast, with SF-295 CNS, with RPMI-8226 leukemia, with NCI/ADR-RES ovarian, with SK-MEL-5 melanoma and with HT29 colon was greater than 50 µg/mL in each case. In addition, the TGI in the experiment with MOLT-4 leukemia and in the experiment on KM12 colon was greater than 50 µg/mL each time.

Regarding `C[C@]12CC[C@H]3[C@@H](C[C@@H]4SC(Nc5ccccc5)=N[C@@]45CC(O)CC[C@]35C)[C@@H]1CCC2O` (stereo not given in full), the GI50 was 1.8 µM with MCF7 breast; 1.06 µM in the experiment with SF-295 CNS; 0.465 µM with RPMI-8226 leukemia; 3.39 µM in the experiment on NCI/ADR-RES ovarian; 1.82 µM in the experiment with SK-MEL-5 melanoma; 3.13 µM in the experiment with OVCAR-4 ovarian. In addition, the values for the GI50 in the experiment with MOLT-4 leukemia, in the experiment on KM12 colon and in the experiment with SNB-75 CNS were 1.87 µM, 1.68 µM and 1.49 µM, respectively. For the same compound, the TGI in the experiment on MCF7 breast worked out at 4.73 µM; with SF-295 CNS, 2.98 µM; in the experiment with RPMI-8226 leukemia, 2.47 µM; with NCI/ADR-RES ovarian, 91.7 µM; with SK-MEL-5 melanoma, 3.41 µM; in the experiment on OVCAR-4 ovarian it was 15.4 µM. The TGI stood at 8.07 µM in the experiment with MOLT-4 leukemia, 3.12 µM in the experiment on KM12 colon and 3.05 µM with SNB-75 CNS.
